From the supplement of paper PMC10307832

Columns and labels:
Assay in all cases: relative viability (nuclei count vs DMSO), 5 days (fraction); higher = more cells survive
[1] = compound: COc1cc2nc(N3CCCN(C)CC3)nc(NC3CCN(Cc4ccccc4)CC3)c2cc1OC
How it was run: (§1)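 Viability here means nuclei in treated wells divided by nuclei in vehicle wells, reported as the median across plates. Only plates with control CV below 25% and at least one doubling passed. Lung cancer cell lines in 1536-well plates were exposed to five √10-spaced library-drug doses for 5 days and counted from 4× Hoechst images in MetaXpress.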

AZD6482 = compound: Cc1cc([C@@H](C)Nc2ccccc2C(=O)O)c2nc(N3CCOCC3)cc(=O)n2c1 [AZD6482]
How it was run: as §1

AZD6482 + Navitoclax = compound: Cc1cc([C@@H](C)Nc2ccccc2C(=O)O)c2nc(N3CCOCC3)cc(=O)n2c1 [AZD6482] + CC1(C)CCC(c2ccc(Cl)cc2)=C(CN2CCN(c3ccc(C(=O)NS(=O)(=O)c4ccc(N[C@H](CCN5CCOCC5)CSc5ccccc5)c(S(=O)(=O)C(F)(F)F)c4)cc3)CC2)C1 [Navitoclax] (partner 0.5 µM)
How it was run: (§2)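 Relative viability equals treated-well nuclei counts divided by vehicle-well nuclei counts. Counts came from 4× images of lung cancer cell lines grown in 1536-well plates for 5 days after pin-tool dosing on the day after seeding. Dosing used one drug alone or a fixed anchor-drug dose plus five library-drug doses (not always all listed) in √10 steps, and values are medians of duplicate plates.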

[2] = compound: COc1cc2nc(N3CCCN(C)CC3)nc(NC3CCN(Cc4ccccc4)CC3)c2cc1OC + CC(=O)Nc1cccc(-n2c(=O)n(C3CC3)c(=O)c3c(Nc4ccc(I)cc4F)n(C)c(=O)c(C)c32)c1 [Trametinib] (partner 0.02 µM)
How it was run: as §2

## NCI-H23
[1]; 0.2 µM
  relative viability: 0.975
[1]; 0.6325 µM
  relative viability: 0.962
[1]; 2 µM
  relative viability: 1.05
[1]; 6.325 µM
  relative viability: 0.927
AZD6482; 0.08 µM
  relative viability: 0.967
AZD6482; 0.253 µM
  relative viability: 0.861
AZD6482; 0.8 µM
  relative viability: 1
AZD6482; 2.53 µM
  relative viability: 0.61
AZD6482; 8 µM
  relative viability: 0.624
AZD6482 + Navitoclax; first compound 0.08 µM
  relative viability: 0.828
AZD6482 + Navitoclax; first compound 0.253 µM
  relative viability: 0.696
AZD6482 + Navitoclax; first compound 0.8 µM
  relative viability: 0.785
AZD6482 + Navitoclax; first compound 2.53 µM
  relative viability: 0.578
AZD6482 + Navitoclax; first compound 8 µM
  relative viability: 0.568
[2]; first compound 0.2 µM
  relative viability: 0.358
[2]; first compound 0.6325 µM
  relative viability: 0.362
[2]; first compound 2 µM
  relative viability: 0.44
[2]; first compound 6.325 µM
  relative viability: 0.342

## LCLC-97TM1
[1]; 0.2 µM
  relative viability: 0.936
[1]; 0.6325 µM
  relative viability: 0.996
[1]; 2 µM
  relative viability: 1.09
[1]; 6.325 µM
  relative viability: 0.947
AZD6482; 0.08 µM
  relative viability: 1.03
AZD6482; 0.253 µM
  relative viability: 0.865
AZD6482; 0.8 µM
  relative viability: 0.855
AZD6482; 8 µM
  relative viability: 0.836
AZD6482 + Navitoclax; first compound 0.08 µM
  relative viability: 0.59
AZD6482 + Navitoclax; first compound 0.253 µM
  relative viability: 0.257
AZD6482 + Navitoclax; first compound 0.8 µM
  relative viability: 0.38
AZD6482 + Navitoclax; first compound 2.53 µM
  relative viability: 0.211
AZD6482 + Navitoclax; first compound 8 µM
  relative viability: 0.211
[2]; first compound 0.2 µM
  relative viability: 0.181
[2]; first compound 0.6325 µM
  relative viability: 0.166
[2]; first compound 2 µM
  relative viability: 0.225
[2]; first compound 6.325 µM
  relative viability: 0.195

## EPLC-272H
[1]; 0.2 µM
  relative viability: 0.918
[1]; 0.6325 µM
  relative viability: 1
[1]; 2 µM
  relative viability: 1.2
[1]; 6.325 µM
  relative viability: 0.783
AZD6482; 0.08 µM
  relative viability: 0.778
AZD6482; 0.253 µM
  relative viability: 0.71
AZD6482; 0.8 µM
  relative viability: 0.888
AZD6482; 2.53 µM
  relative viability: 0.535
AZD6482; 8 µM
  relative viability: 0.596
AZD6482 + Navitoclax; first compound 0.08 µM
  relative viability: 0.943
AZD6482 + Navitoclax; first compound 0.8 µM
  relative viability: 0.994
AZD6482 + Navitoclax; first compound 2.53 µM
  relative viability: 0.896
AZD6482 + Navitoclax; first compound 8 µM
  relative viability: 0.775
[2]; first compound 0.2 µM
  relative viability: 0.292
[2]; first compound 0.6325 µM
  relative viability: 0.333
[2]; first compound 2 µM
  relative viability: 0.268
[2]; first compound 6.325 µM
  relative viability: 0.278

## NCI-H1915
[1]; 0.2 µM
  relative viability: 0.978
[1]; 0.6325 µM
  relative viability: 0.908
[1]; 2 µM
  relative viability: 1.06
[1]; 6.325 µM
  relative viability: 0.973
AZD6482; 0.08 µM
  relative viability: 0.996
AZD6482; 0.253 µM
  relative viability: 0.897
AZD6482; 0.8 µM
  relative viability: 1.09
AZD6482; 2.53 µM
  relative viability: 0.893
AZD6482; 8 µM
  relative viability: 1.01
AZD6482 + Navitoclax; first compound 0.08 µM
  relative viability: 0.772
AZD6482 + Navitoclax; first compound 0.253 µM
  relative viability: 0.696
AZD6482 + Navitoclax; first compound 0.8 µM
  relative viability: 0.83
AZD6482 + Navitoclax; first compound 2.53 µM
  relative viability: 0.739
AZD6482 + Navitoclax; first compound 8 µM
  relative viability: 0.739
[2]; first compound 0.2 µM
  relative viability: 0.309
[2]; first compound 0.6325 µM
  relative viability: 0.295
[2]; first compound 2 µM
  relative viability: 0.309
[2]; first compound 6.325 µM
  relative viability: 0.277

## NCI-H2405
[1]; 0.2 µM
  relative viability: 1.03
[1]; 0.6325 µM
  relative viability: 1.08
[1]; 2 µM
  relative viability: 1.13
[1]; 6.325 µM
  relative viability: 0.989
AZD6482; 0.08 µM
  relative viability: 0.749
AZD6482; 0.253 µM
  relative viability: 0.672
AZD6482; 0.8 µM
  relative viability: 1.03
AZD6482; 2.53 µM
  relative viability: 0.631
AZD6482; 8 µM
  relative viability: 0.599
AZD6482 + Navitoclax; first compound 0.08 µM
  relative viability: 0.488
AZD6482 + Navitoclax; first compound 0.8 µM
  relative viability: 0.778
AZD6482 + Navitoclax; first compound 2.53 µM
  relative viability: 0.489
AZD6482 + Navitoclax; first compound 8 µM
  relative viability: 0.509
[2]; first compound 0.2 µM
  relative viability: 0.652
[2]; first compound 0.6325 µM
  relative viability: 0.604
[2]; first compound 2 µM
  relative viability: 0.676
[2]; first compound 6.325 µM
  relative viability: 0.591

## NCI-H322M
[1]; 0.2 µM
  relative viability: 0.856
[1]; 0.6325 µM
  relative viability: 1.09
[1]; 2 µM
  relative viability: 0.9
[1]; 6.325 µM
  relative viability: 0.854
AZD6482; 0.08 µM
  relative viability: 0.847
AZD6482; 0.253 µM
  relative viability: 0.822
AZD6482; 0.8 µM
  relative viability: 0.838
AZD6482; 2.53 µM
  relative viability: 0.495
AZD6482; 8 µM
  relative viability: 0.633
AZD6482 + Navitoclax; first compound 0.08 µM
  relative viability: 1.24
AZD6482 + Navitoclax; first compound 0.253 µM
  relative viability: 1
AZD6482 + Navitoclax; first compound 0.8 µM
  relative viability: 1.07
AZD6482 + Navitoclax; first compound 2.53 µM
  relative viability: 0.675
AZD6482 + Navitoclax; first compound 8 µM
  relative viability: 0.798
[2]; first compound 0.2 µM
  relative viability: 0.503
[2]; first compound 0.6325 µM
  relative viability: 0.495
[2]; first compound 2 µM
  relative viability: 0.531
[2]; first compound 6.325 µM
  relative viability: 0.512

## NCI-H2170
[1]; 0.2 µM
  relative viability: 1.02
[1]; 0.6325 µM
  relative viability: 0.963
[1]; 2 µM
  relative viability: 1
[1]; 6.325 µM
  relative viability: 0.975
AZD6482; 0.08 µM
  relative viability: 0.909
AZD6482; 0.253 µM
  relative viability: 0.897
AZD6482; 0.8 µM
  relative viability: 0.944
AZD6482; 2.53 µM
  relative viability: 0.851
AZD6482; 8 µM
  relative viability: 0.927
AZD6482 + Navitoclax; first compound 0.08 µM
  relative viability: 0.502
AZD6482 + Navitoclax; first compound 0.253 µM
  relative viability: 0.558
AZD6482 + Navitoclax; first compound 0.8 µM
  relative viability: 0.594
AZD6482 + Navitoclax; first compound 2.53 µM
  relative viability: 0.444
AZD6482 + Navitoclax; first compound 8 µM
  relative viability: 0.476
[2]; first compound 0.2 µM
  relative viability: 0.989
[2]; first compound 0.6325 µM
  relative viability: 0.856
[2]; first compound 2 µM
  relative viability: 0.959
[2]; first compound 6.325 µM
  relative viability: 0.948

## NCI-H1395
[1]; 0.2 µM
  relative viability: 0.925
[1]; 0.6325 µM
  relative viability: 1.09
[1]; 2 µM
  relative viability: 0.976
[1]; 6.325 µM
  relative viability: 0.787
AZD6482; 0.08 µM
  relative viability: 0.742
AZD6482; 0.253 µM
  relative viability: 0.539
AZD6482; 0.8 µM
  relative viability: 0.697
AZD6482; 2.53 µM
  relative viability: 0.443
AZD6482; 8 µM
  relative viability: 0.527
AZD6482 + Navitoclax; first compound 0.08 µM
  relative viability: 0.831
AZD6482 + Navitoclax; first compound 0.253 µM
  relative viability: 0.822
AZD6482 + Navitoclax; first compound 0.8 µM
  relative viability: 0.803
AZD6482 + Navitoclax; first compound 2.53 µM
  relative viability: 0.542
AZD6482 + Navitoclax; first compound 8 µM
  relative viability: 0.733
[2]; first compound 0.2 µM
  relative viability: 1.01
[2]; first compound 0.6325 µM
  relative viability: 1.03
[2]; first compound 2 µM
  relative viability: 1.13
[2]; first compound 6.325 µM
  relative viability: 0.806

## NCI-H838
[1]; 0.2 µM
  relative viability: 0.992
[1]; 0.6325 µM
  relative viability: 1.03
[1]; 2 µM
  relative viability: 1.08
[1]; 6.325 µM
  relative viability: 0.92
AZD6482; 0.08 µM
  relative viability: 0.826
AZD6482; 0.253 µM
  relative viability: 0.95
AZD6482; 0.8 µM
  relative viability: 0.914
AZD6482; 2.53 µM
  relative viability: 0.538
AZD6482; 8 µM
  relative viability: 0.535
AZD6482 + Navitoclax; first compound 0.08 µM
  relative viability: 0.984
AZD6482 + Navitoclax; first compound 0.253 µM
  relative viability: 1.08
AZD6482 + Navitoclax; first compound 0.8 µM
  relative viability: 1.05
AZD6482 + Navitoclax; first compound 2.53 µM
  relative viability: 0.622
AZD6482 + Navitoclax; first compound 8 µM
  relative viability: 0.623
[2]; first compound 0.2 µM
  relative viability: 0.536
[2]; first compound 0.6325 µM
  relative viability: 0.556
[2]; first compound 2 µM
  relative viability: 0.532
[2]; first compound 6.325 µM
  relative viability: 0.391

## CAL-12T
[1]; 0.2 µM
  relative viability: 0.905
[1]; 0.6325 µM
  relative viability: 0.964
[1]; 2 µM
  relative viability: 1.02
[1]; 6.325 µM
  relative viability: 0.933
AZD6482; 0.08 µM
  relative viability: 0.959
AZD6482; 0.253 µM
  relative viability: 0.979
AZD6482; 0.8 µM
  relative viability: 1.1
AZD6482; 2.53 µM
  relative viability: 0.731
AZD6482; 8 µM
  relative viability: 0.839
AZD6482 + Navitoclax; first compound 0.08 µM
  relative viability: 1.13
AZD6482 + Navitoclax; first compound 0.253 µM
  relative viability: 1.29
AZD6482 + Navitoclax; first compound 0.8 µM
  relative viability: 1.29
AZD6482 + Navitoclax; first compound 2.53 µM
  relative viability: 0.648
AZD6482 + Navitoclax; first compound 8 µM
  relative viability: 1.23
[2]; first compound 0.2 µM
  relative viability: 0.324
[2]; first compound 0.6325 µM
  relative viability: 0.329
[2]; first compound 2 µM
  relative viability: 0.302
[2]; first compound 6.325 µM
  relative viability: 0.266
